Where “and” joins values, the source holds several entries; their conditions need not be identical. Equal entries are not always repeated.

One assay has as its system NCI-H358 (K-Ras G12C). Description: CellTiter-Glo cell viability assay, NCI-H358. In kind it is cell-based, human. The conditions noted are these: Homo sapiens, NCI-H358, Table 5; read-out: H358 Cell Viability assay data (K-Ras G12C, IC50). The method, boiled down: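 Compounds dispensed directly onto plated NCI-H358 cells; plates equilibrated to room temperature on day 5 before luminescence read-out. Signal normalized to mean DMSO control (%) and fitted by four-parameter logistic.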
A general note: In ATP-based viability assays light output follows the ATP content of the culture.
Broadly, the IC50 is the concentration at which inhibition is half-maximal. `CCn1c(-c2cccnc2[C@H](C)OC)c2c3cc(ccc31)-c1cccc(c1)C[C@H](NC(=O)[C@H](C1CCCC1)N(C)C(=O)[C@@H]1CN(C(=O)C#CC(C)(C)N(C)C)C[C@@H]1C)C(=O)N1CCC[C@H](N1)C(=O)OCC(C)(C)C2` (atropisomer, axis not shown) [Compound A391]: the IC50 is below 0.01 µM.

Regarding `CO[C@@H](C)c1ncccc1-c1c2c3cc(ccc3n1CC(F)(F)F)-c1csc(n1)C[C@H](NC(=O)[C@H](C(C)C)N(C)C(=O)N1C[C@@H]3OCCN(C(=O)/C=C/CF)[C@@H]3C1)C(=O)N1CCC[C@H](N1)C(=O)OCC(C)(C)C2` (atropisomer, axis not shown) [Compound A571], the IC50 was below 0.01 µM. Same read-out and setting: for `C=CC(=O)N1CC[C@H](C(=O)N(C)[C@H](C(=O)N[C@H]2C[C@H]3CN(CCO3)c3ccc4c(c3)c(c(-c3cccnc3[C@H](C)OC)n4CC)CC(C)(C)COC(=O)[C@@H]3CCCN(N3)C2=O)C(C)C)C1` [Compound A378] the value was 0.1 to 1 µM.

The same assay, now with this note: Homo sapiens, NCI-H358, read-out: H358 Cell Viability assay data (K-Ras G12C, IC50, uM), Table 5.
Take `C=CC(=O)N1CC[C@H](C(=O)N(C)[C@H](C(=O)N[C@H]2Cc3cc(CF)cc(c3)-c3ccc4c(c3)c(c(-c3cccnc3[C@H](C)OC)n4CC(F)(F)F)CC(C)(C)COC(=O)[C@@H]3CCCN(N3)C2=O)C(C)C)C1` [Compound A659]: the concentration for half-maximal inhibition (IC50) is below 0.01 µM.

Regarding `C=CS(=O)(=O)N1CC[C@H](C(=O)N(C)[C@H](C(=O)N[C@H]2Cc3cc(O)cc(c3)-c3ccc4c(c3)c(c(-c3cccnc3[C@H](C)OC)n4CC)CC(C)(C)COC(=O)[C@@H]3CCCN(N3)C2=O)C(C)C)C1` [Compound A132], the IC50 was below 0.01 µM. The same measure, in the same setting: next, `CCn1c(-c2cccnc2[C@H](C)OC)c2c3cc(ccc31)-c1cccc(c1)C[C@H](NC(=O)[C@H](C(C)C)N(C)C(=O)[C@H]1CCN(C(=O)C#CCN(C)C)C1)C(=O)N1CCC[C@H](N1)C(=O)OCC(C)(C)C2` (atropisomer, axis not shown) [Compound A121]: below 0.01 µM.

Staying with this assay, now noted: Table 5; read-out: H358 Cell Viability assay data (K-Ras G12C, IC50).
On to `C=CC(=O)N1C[C@H](C)[C@H](C(=O)N(C)[C@H](C(=O)N[C@H]2Cc3cc(O)cc(c3)-c3ccc4c(c3)c(c(-c3cccnc3COC)n4CC)CC(C)(C)COC(=O)[C@@H]3CCCN(N3)C2=O)C(C)C)C1` [Compound A56], for which the IC50 is below 0.01 µM. On the same count and under the same terms, next, `C=CC(=O)N1CC[C@H](C(=O)N(C)[C@H](C(=O)N[C@H]2Cc3cc(O)cc(c3)-c3ccc4c(c3)c(c(-c3ccc(N5CCN(C)CC5)nc3)n4CC)CC(C)(C)COC(=O)[C@@H]3CCCN(N3)C2=O)C(C)C)C1` [Compound A89, (2S)-N-[(8S,14S)-22-ethyl-4-hydroxy-18,18-dimethyl-21-[6-(4-methylpiperazin-1-yl)pyridin-3-yl]-9,15-dioxo-16-oxa-10,22,28-triazapentacyclo[18.5.2.1^2,^6.1^10,^14.0^23,^27]nonacosa-1(26),2,4,6(29),20,23(27),24-heptaen-8-yl]-3-methyl-2-{N-methyl-1-[(3S)-1-(prop-2-enoyl)pyrrolidin-3-yl]formamido}butanamide]: 0.01 to 0.1 µM; `C=CC(=O)N1CCCN(C(=O)N(C)[C@H](C(=O)N[C@H]2Cc3cc(O)cc(c3)-c3ccc4c(c3)c(c(-c3ccccc3CCOC)n4CC)CC(C)(C)COC(=O)[C@@H]3CCCN(N3)C2=O)C(C)C)CC1` [Compound A13]: 0.1 to 1 µM; `CCn1c(-c2ccccc2CN(C)C)c2c3cc(ccc31)-c1cc(O)cc(c1)C[C@H](NC(=O)[C@H](C(C)C)N(C)C(=O)c1ccc(NC(=O)/C=C/CN(C)C)cn1)C(=O)N1CCC[C@H](N1)C(=O)OCC(C)(C)C2` [Compound A46]: above 1 µM. The same measure, in the same setting: for `CCn1c(-c2cncnc2C(C)C)c2c3cc(ccc31)-c1cc(O)cc(c1)C[C@H](NC(=O)[C@H](C(C)C)N(C)C(=O)[C@H]1CCN(C(=O)C#CCN(C)C)C1)C(=O)N1CCC[C@H](N1)C(=O)OCC(C)(C)C2` [Compound A155] the value was < 0.01 µM and 0.01 to 0.1 µM; for `C=CC(=O)N1CC[C@H](C(=O)N(C)[C@H](C(=O)N[C@H]2Cc3cc(O)cc(c3)-c3ccc4c(c3)c(c(-c3ccccc3[C@@H](C)OC)n4CC)CC(C)(C)COC(=O)[C@@H]3CCCN(N3)C2=O)C(C)C)C1` [Compound A29], 0.1 to 1 µM. Still for that read-out and setting: next, `C=CC(=O)N1CC[C@H](C(=O)N(C)[C@H](C(=O)N[C@H]2Cc3cc(O)cc(c3)-c3ccc4c(c3)c(c([C@@H]3CC=CN=C3COC)n4CC)CC(C)(C)COC(=O)[C@@H]3CCCN(N3)C2=O)C(C)C)C1` [Compound A65]: 0.1 to 1 µM; `CCn1c(-c2cccnc2COC)c2c3cc(ccc31)-c1cc(O)cc(c1)C[C@H](NC(=O)[C@H](C(C)C)N(C)C(=O)[C@H]1CCN(C(=O)C#CCN3CCOCC3)C1)C(=O)N1CCC[C@H](N1)C(=O)OCC(C)(C)C2` [Compound A95, (2S)-N-[(8S,14S)-22-ethyl-4-hydroxy-21-[2-(methoxymethyl)pyridin-3-yl]-18,18-dimethyl-9,15-dioxo-16-oxa-10,22,28-triazapentacyclo[18.5.2.1^2,^6.1^10,^14.0^23,^27]nonacosa-1(26),2,4,6(29),20,23(27),24-heptaen-8-yl]-3-methyl-2-{N-methyl-1-[(3S)-1-[4-(morpholin-4-yl)but-2-ynoyl]pyrrolidin-3-yl]formamido}butanamide]: 0.01 to 0.1 µM; `CCn1c(-c2ccccc2CN(C)C)c2c3cc(ccc31)-c1cc(O)cc(c1)C[C@H](NC(=O)[C@H](C(C)C)N(C)C(=O)[C@H]1CCN(C(=O)/C=C/CN(C)C)C1)C(=O)N1CCC[C@H](N1)C(=O)OCC(C)(C)C2` [Compound A47]: 0.01 to 0.1 µM. As to `CCn1c(-c2cnccc2COC)c2c3cc(ccc31)-c1cc(O)cc(c1)C[C@H](NC(=O)[C@H](C(C)C)N(C)C(=O)[C@H]1CCN(C(=O)/C=C/CN(C)C)C1)C(=O)N1CCC[C@H](N1)C(=O)OCC(C)(C)C2` [Compound A87], the IC50 is 0.01 to 0.1 µM.

On to `CCn1c(-c2cccnc2COC)c2c3cc(ccc31)-c1cc(O)cc(c1)C[C@H](NC(=O)[C@H](C(C)C)N(C)C(=O)C1CN(C(=O)C#CCN(C)C)C1)C(=O)N1CCC[C@H](N1)C(=O)OCC(C)(C)C2` [Compound A97], for which the IC50 lay in the range of 0.01 to 0.1 µM. As for `C=CC(=O)N1CC[C@H](C(=O)N(C)[C@H](C(=O)N[C@H]2Cc3cc(O)cc(c3)-c3ccc4c(c3)c(c(-c3ccncc3)n4C(C)(C)C#N)CC(C)(C)COC(=O)[C@@H]3CCCN(N3)C2=O)C(C)C)C1` [Compound A86], the IC50 fell in the range of 0.01 to 0.1 µM. Same read-out and setting: for `C=CC(=O)N1CC[C@H](C(=O)N(C)[C@H](C(=O)N[C@H]2Cc3cc(O)cc(c3)-c3ccc4c(c3)c(c(-c3cnccc3COC)n4CC)CC(C)(C)COC(=O)[C@@H]3CCCN(N3)C2=O)C(C)C)C1` [Compound A91] the value was below 0.01 µM; for `C=CC(=O)N1CC[C@H](C(=O)N(C)[C@H](C(=O)N[C@H]2Cc3cc(O)cc(c3)-c3ccc4c(c3)c(c(-c3ccc5c(c3)CCN(C)C5)n4CC)CC(C)(C)COC(=O)[C@@H]3CCCN(N3)C2=O)C(C)C)C1` [Compound A40], 0.01 to 0.1 µM. On the same count and under the same terms, for `C=CC(=O)N1C[C@H](C)[C@H](C(=O)N(C)[C@H](C(=O)N[C@H]2Cc3cc(O)cc(c3)-c3ccc4c(c3)c(c(-c3cccnc3COC)n4CC)CC(C)(C)COC(=O)[C@@H]3CCCN(N3)C2=O)C2CCCC2)C1` [Compound A57] the value was below 0.01 µM; for `C=CC(=O)N1CC[C@H](C(=O)N(C)[C@H](C(=O)N[C@H]2Cc3cc(O)cc(c3)-c3ccc4c(c3)c(c(-c3cncc(COC)c3)n4CC)CC(C)(C)COC(=O)[C@@H]3CCCN(N3)C2=O)C(C)C)C1` [Compound A83], 0.01 to 0.1 µM.

The record behind these values is patent publication EP4806900A2, “RAS INHIBITORS” (Revolution Medicines, Inc., priority 2019, dated 2021).
